Residue numbers refer to the chain shown, from its start.

In series [1] the target is T1, rA1M (recombinant human α1-microglobulin; rA1M-wt and rA1M-035) (Homo sapiens, UniProt P02760).
T1 construct: gene AMBP
T1 sequence (P02760 20-202): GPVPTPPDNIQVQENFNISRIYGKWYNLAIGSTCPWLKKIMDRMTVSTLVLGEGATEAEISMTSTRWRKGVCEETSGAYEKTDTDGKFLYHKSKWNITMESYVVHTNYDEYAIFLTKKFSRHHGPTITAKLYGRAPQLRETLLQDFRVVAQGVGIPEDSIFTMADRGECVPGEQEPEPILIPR
Nature of the series: SPR (BIAcore X100), rA1M captured on immobilized anti-His antibody. It is filed as binding. In general terms: In SPR one partner is held on a chip, and binding of the other changes the refractive index at the surface.

Series [2] has as its target T2, rA1M (recombinant human α1-microglobulin; rA1M-wt and rA1M-035) (Homo sapiens, UniProt P02760, N115D/N36D/R85H).
T2 construct: gene AMBP
T2 sequence (P02760 20-202 N36D/R85H/N115D): T1 sequence (P02760 20-202) with N17D, R66H, N96D
The description is as above. It counts as binding.

Series [3] is described as follows: SEC; 24-mL Superose 12 10/30 GL column, 20 mM Tris-HCl, pH 8.0 + 0.15 M NaCl; 100-200 ug protein loaded; unstressed samples at 0.1 mM or samples stored in PBS at the indicated concentrations, temperatures and times. On the technique in general: In gel filtration, larger molecules generally elute earlier.
In the next series the target is P02760. The series is described as above.

As a reminder, the Kd is a measure of binding affinity in units of concentration. Consider `C=CC1=C(C)C2=Cc3c(C=C)c(C)c4[n]3[Fe]([Cl])[n]3c(c(C)c(CCC(=O)O)c3=CC3=NC(=C4)C(C)=C3CCC(=O)O)=CC1=N2` [heme], for which the Kd came to 15.8 µM in series [1] and 4.45 µM in series [2].

As to “rA1M-035, recombinant human α1-microglobulin variant with N17D, R66H and N96D”, in series [3], the Monomer (%) was determined as 93%.

B1: recombinant wild-type human α1-microglobulin (rA1M-wt) (protein)
chain: GPVPTPPDNIQVQENFNISRIYGKWYNLAIGSTCPWLKKIMDRMTVSTLVLGEGATEAEISMTSTRWRKGVCEETSGAYEKTDTDGKFLYHKSKWNITMESYVVHTNYDEYAIFLTKKFSRHHGPTITAKLYGRAPQLRETLLQDFRVVAQGVGIPEDSIFTMADRGECVPGEQEPEPILIPRV
Take B1: the Monomer (%) with P02760 came to 87%.

Values taken from article PMC6338582, “rA1M-035, a Physicochemically Improved Human Recombinant α1-Microglobulin, Has Therapeutic Effects in Rhabdomyolysis-Induced Acute Kidney Injury” (Antioxidants & Redox Signaling, 2018).
